The source made the active and inactive calls.
Assays:
Cytochrome P450 2C19 = Cytochrome P450 2C19 (Homo sapiens, UniProt P33261); experiment: Cytochrome panel assay with activity outcomes. Panel member name: p450-cyp2c19 Compounds with AC50 equal or less than 10 uM are considered active; type: functional; conditions: read-out: AC50
Cytochrome P450 1A2 = biological target: T1, Cytochrome P450 1A2 (Homo sapiens, UniProt P05177);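 also: PubChem cytochrome P450 panel assay, CYP1A2 panel member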
T1 sequence (P05177 whole entry): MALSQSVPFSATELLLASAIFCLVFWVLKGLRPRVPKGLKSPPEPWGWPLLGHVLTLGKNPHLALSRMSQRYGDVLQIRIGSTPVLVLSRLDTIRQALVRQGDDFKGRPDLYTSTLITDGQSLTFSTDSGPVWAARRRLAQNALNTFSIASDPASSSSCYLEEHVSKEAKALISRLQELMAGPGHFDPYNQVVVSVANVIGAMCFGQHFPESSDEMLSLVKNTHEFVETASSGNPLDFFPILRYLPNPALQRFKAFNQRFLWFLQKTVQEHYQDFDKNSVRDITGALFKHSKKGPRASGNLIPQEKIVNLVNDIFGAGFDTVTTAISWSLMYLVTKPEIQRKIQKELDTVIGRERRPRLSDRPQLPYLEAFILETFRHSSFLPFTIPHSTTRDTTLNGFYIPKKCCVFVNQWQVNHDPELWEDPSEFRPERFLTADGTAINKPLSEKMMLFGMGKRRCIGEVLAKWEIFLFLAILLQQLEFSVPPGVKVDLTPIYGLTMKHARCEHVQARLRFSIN

Cytochrome P450 3A4 = Cytochrome P450 3A4 (Homo sapiens, UniProt P08684);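 also: CYP3A4 tested as one member of a cytochrome P450 panel screen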
Chain of Cytochrome P450 3A4 (P08684 whole entry): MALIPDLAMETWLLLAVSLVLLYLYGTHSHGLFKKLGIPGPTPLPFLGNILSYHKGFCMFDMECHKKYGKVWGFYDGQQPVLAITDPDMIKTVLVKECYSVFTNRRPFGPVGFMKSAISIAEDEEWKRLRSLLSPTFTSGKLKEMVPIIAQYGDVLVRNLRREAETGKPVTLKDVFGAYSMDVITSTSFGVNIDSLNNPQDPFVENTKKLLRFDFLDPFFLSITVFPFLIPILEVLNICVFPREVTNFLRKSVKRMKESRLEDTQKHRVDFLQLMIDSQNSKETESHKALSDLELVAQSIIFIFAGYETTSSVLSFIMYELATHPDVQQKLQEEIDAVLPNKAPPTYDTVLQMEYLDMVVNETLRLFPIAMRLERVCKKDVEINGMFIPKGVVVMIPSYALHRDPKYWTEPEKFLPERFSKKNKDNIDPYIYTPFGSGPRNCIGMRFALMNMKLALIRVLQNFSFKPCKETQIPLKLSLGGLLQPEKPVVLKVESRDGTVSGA

[1] = Luminescence Cell-Based Dose Confirmation HTS to Identify Activators of 5'UTR Stem-Loop Driven Alpha-Synuclein mRNA Translation in H4 Neuroglioblastoma Cells. [Related pubchem assays: 1829 (Project Summary), 1814 (Primary HTS)]; type: functional
[2] = Luminescence Cell-Based Dose Response HTS to Identify Activators of Luciferase Translation or Activity in H4 […] Cells. [Related pubchem assays: 1829 (Project Summary), 1814 (Primary HTS)]; type: functional
Cytochrome P450 2C9 = Cytochrome P450 2C9 (Homo sapiens, UniProt P11712)
Chain of Cytochrome P450 2C9 (P11712 whole entry): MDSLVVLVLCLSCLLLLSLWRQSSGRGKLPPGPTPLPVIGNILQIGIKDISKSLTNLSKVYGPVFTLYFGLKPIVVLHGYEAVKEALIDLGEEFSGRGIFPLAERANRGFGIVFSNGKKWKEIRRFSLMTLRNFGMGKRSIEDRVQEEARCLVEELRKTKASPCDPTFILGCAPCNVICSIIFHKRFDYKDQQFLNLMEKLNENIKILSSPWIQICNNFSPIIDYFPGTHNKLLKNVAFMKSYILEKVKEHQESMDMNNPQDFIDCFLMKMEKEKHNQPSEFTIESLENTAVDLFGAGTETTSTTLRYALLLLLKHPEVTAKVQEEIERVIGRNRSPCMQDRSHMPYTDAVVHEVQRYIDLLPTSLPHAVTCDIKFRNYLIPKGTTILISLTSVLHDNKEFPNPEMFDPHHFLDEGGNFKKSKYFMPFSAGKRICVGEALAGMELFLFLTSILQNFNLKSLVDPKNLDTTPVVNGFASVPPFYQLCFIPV

H4 = experiment: Luminescence Cell-Based Dose Response HTS to Identify Activators of 5'UTR Stem-Loop Driven Prion Protein mRNA Translation in H4 Neuroglioblastoma Cells. [Related pubchem assays: 1829 (Project Summary), 1814 (Primary HTS)]; type: functional; conditions: Homo sapiens
[3] = biological target: T2, Heat shock factor protein 1 (Mus musculus, UniProt P38532); experiment: decrease of HSF1-responsive luciferase luminescence – cell-based, NIH3T3, dose retest, confirmation (AID 2382); type: functional;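 also: NIH3T3 fibroblasts with HSF1-driven luciferase reporter stressed by proteasome inhibitor MG132; luminescence from HSF1-driven luciferase expression after 8 hours of MG132 stress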
T2 sequence (P38532 whole entry): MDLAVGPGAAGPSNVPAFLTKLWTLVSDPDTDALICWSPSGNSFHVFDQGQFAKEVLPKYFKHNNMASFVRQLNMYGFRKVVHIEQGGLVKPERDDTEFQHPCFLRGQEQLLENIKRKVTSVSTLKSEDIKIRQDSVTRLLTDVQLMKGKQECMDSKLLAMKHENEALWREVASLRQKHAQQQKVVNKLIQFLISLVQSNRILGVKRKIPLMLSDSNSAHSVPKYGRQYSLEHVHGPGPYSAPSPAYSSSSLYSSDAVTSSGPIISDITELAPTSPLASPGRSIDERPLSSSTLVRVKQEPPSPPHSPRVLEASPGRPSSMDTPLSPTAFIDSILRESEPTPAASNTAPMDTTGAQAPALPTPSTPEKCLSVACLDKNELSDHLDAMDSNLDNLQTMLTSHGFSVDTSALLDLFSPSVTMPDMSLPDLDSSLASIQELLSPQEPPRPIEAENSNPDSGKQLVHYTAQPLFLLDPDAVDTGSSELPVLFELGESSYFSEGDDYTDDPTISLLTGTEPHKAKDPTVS

[4] = biological target: Polyadenylate-binding protein 1 (Homo sapiens, UniProt P11940); experiment: MLLE domain peptide-binding blockers, IC50 – biochemical, fluorescence polarization, FITC-PAM2 peptide, dose response (AID 602259); type: functional; conditions: read-out: IC50_Mean
Chain of Polyadenylate-binding protein 1 (P11940 whole entry, the tested form may be a part): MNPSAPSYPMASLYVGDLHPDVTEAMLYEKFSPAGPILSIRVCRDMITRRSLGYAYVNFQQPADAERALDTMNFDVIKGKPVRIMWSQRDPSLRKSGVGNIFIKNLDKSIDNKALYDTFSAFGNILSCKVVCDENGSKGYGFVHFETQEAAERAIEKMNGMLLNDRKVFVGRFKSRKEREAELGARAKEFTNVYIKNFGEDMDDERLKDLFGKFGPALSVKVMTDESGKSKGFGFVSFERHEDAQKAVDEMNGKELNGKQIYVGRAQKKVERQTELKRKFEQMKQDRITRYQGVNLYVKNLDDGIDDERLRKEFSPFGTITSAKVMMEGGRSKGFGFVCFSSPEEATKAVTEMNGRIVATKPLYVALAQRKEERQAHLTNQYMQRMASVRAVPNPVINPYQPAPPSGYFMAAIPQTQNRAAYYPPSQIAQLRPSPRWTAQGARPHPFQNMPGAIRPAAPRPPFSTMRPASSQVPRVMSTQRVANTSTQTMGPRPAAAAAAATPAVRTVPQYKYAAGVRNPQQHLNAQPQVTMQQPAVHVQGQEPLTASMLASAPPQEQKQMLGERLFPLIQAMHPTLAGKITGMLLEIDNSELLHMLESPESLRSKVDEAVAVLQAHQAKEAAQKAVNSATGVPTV

Chain of Cytochrome P450 2C19 (P33261 whole entry): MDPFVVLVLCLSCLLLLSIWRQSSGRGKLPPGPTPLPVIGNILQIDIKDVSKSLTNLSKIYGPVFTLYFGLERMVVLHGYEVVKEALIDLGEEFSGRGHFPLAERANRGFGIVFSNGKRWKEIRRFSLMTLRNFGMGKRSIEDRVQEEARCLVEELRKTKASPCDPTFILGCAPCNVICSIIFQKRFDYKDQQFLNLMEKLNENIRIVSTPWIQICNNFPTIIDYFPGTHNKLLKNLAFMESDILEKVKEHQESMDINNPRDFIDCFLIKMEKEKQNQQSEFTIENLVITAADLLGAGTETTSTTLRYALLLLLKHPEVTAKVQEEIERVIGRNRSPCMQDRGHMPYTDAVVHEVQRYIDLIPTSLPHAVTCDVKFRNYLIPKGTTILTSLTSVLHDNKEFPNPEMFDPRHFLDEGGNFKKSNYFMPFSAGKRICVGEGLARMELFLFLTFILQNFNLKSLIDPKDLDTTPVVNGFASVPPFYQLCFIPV

Question: With `C[C@](N)(COP(=O)(O)O)C(=O)O` as the compound, how does the AC50 (Cytochrome P450 2C19) read?
Answer: 25.1 µM (inconclusive)

Question: And the AC50 (Cytochrome P450 1A2)?
Answer: 31.6 µM (inconclusive)

Question: Which AC50 (Cytochrome P450 3A4) does the source give for `CCc1c(C(=O)OC)ncc2[nH]c3cc(OC)c(OC)cc3c12` here?
Answer: 15.8 µM (inconclusive)

Question: For `Cc1ccc(N2CCN(C(=O)c3cn(CC4CCCCC4)nn3)C(C)C2)cc1` (stereo unspecified), which EC50 [1] is on record?
Answer: 2.49 µM (active)

Question: And the EC50 [2]?
Answer: 0.418 µM (active)

Question: With `Cc1cnc(CNc2cc(-c3cccnc3)ncn2)cn1` as the compound, how does the AC50 (Cytochrome P450 3A4) read?
Answer: 15.8 µM (inconclusive)

Question: What about the AC50 (Cytochrome P450 1A2) of the same compound?
Answer: 15.8 µM (inconclusive)

Question: With `COc1ccc(NC(=O)N2CCCC3(CCN(C(=O)Oc4ccccc4)CC3)C2)cc1` as the compound, how does the AC50 (Cytochrome P450 2C9) read?
Answer: 1.58 µM (inconclusive)

Question: For `COc1cc(O)c2c(O)c3c(c4c2c1[C@@]1(C4)C(C)=CCCC1(C)C)[C@H](O)[C@@]1(O)CC(O)=C(C(N)=O)C(=O)[C@]1(O)C3=O`, which AC50 (Cytochrome P450 2C9) is on record?
Answer: 3.16 µM (inconclusive)

Question: And the AC50 (Cytochrome P450 1A2)?
Answer: 3.16 µM (inconclusive)

Question: Which results are given for `O=C1NCCN1Cc1cccc(Cl)c1`?
Answer: AC50 (Cytochrome P450 2C9): 2.24 µM (inconclusive); AC50 (Cytochrome P450 2C19): 2.24 µM (inconclusive)

Question: What does the source list for `O=C(c1cnsn1)N1CCC(CO)(Cc2cccc(F)c2)CC1`?
Answer: EC50 (H4): 75.8 µM (active); EC50 [1]: 14.8 µM (active); EC50 [2]: 15.2 µM (active)

Question: For `COc1ccc(COC(=O)N/N=C2/C[C@@H](O)[C@@H](O)[C@@H]3[C@H]4C(=O)N(c5ccc(F)cc5F)C(=O)[C@@H]4CC[C@@H]23)cc1`, which AC50 (Cytochrome P450 3A4) is on record?
Answer: 3.16 µM (inconclusive)

Question: Which AC50 (Cytochrome P450 3A4) does the source give for `Cc1noc(C)c1-c1cc(Nc2ccc(F)cc2)ncn1` here?
Answer: 20 µM (inconclusive)

Question: What about the AC50 (Cytochrome P450 2C19) of the same compound?
Answer: 39.8 µM (inconclusive)

Question: For `Clc1ccc(COn2ccnc2)cc1Cl`, which EC50 (H4) is on record?
Answer: > 120 µM (not active)

Question: What about the EC50 [1] of the same compound?
Answer: > 120 µM (not active)

Question: And the EC50 [2]?
Answer: > 120 µM (not active)

Question: For `O=c1c(-c2cccc(F)c2)nc2cncnc2n1Cc1ccccc1Cl`, which AC50 (Cytochrome P450 3A4) is on record?
Answer: 15.8 µM (inconclusive)

Question: With `CCOC(=O)c1ccc(N[S+]([O-])C23CC4CC(CC(C4)C2)C3)cc1` (stereo unspecified) as the compound, how does the EC50 (H4) read?
Answer: > 120 µM (not active)

Question: And the EC50 [1]?
Answer: > 120 µM (not active)

Question: And the EC50 [2]?
Answer: > 120 µM (not active)

Question: Which EC50 [3] does the source give for `C=CCn1c(CCCNC(=O)C(C)(C)C)nc2ccccc21` here?
Answer: > 195 µM (not active)

Question: Which EC50 [3] does the source give for `COc1cc(SC)ccc1C(=O)OCC(=O)NC1CCCC1` here?
Answer: > 195 µM (not active)

Question: For `Cc1ccc(NC(S)=Nc2ccc(Br)cc2)cc1`, which AC50 (Cytochrome P450 3A4) is on record?
Answer: 14.1 µM (inconclusive)

Question: For `COc1ccc(-n2c(=O)c(C)nc3cncnc32)cc1`, which AC50 (Cytochrome P450 2C9) is on record?
Answer: 39.8 µM (inconclusive)

Question: Which results are given for `CCOc1c2ccc(C(=O)NCCc3cccs3)cc2nn1CC`?
Answer: EC50 (H4): > 120 µM (not active); AC50 (Cytochrome P450 2C9): 28.2 µM (inconclusive); AC50 (Cytochrome P450 2C19): 4.47 µM (inconclusive); EC50 [2]: 1.51 µM (active)

Question: For `CN(C)C(=O)c1ccc(-c2nc(Nc3ccncc3)c3ccccc3n2)cc1`, which AC50 (Cytochrome P450 2C19) is on record?
Answer: 39.8 µM (inconclusive)

Question: For `CCn1ccc(C(=O)NC2=C(C#N)CCC2)n1`, which AC50 (Cytochrome P450 2C9) is on record?
Answer: 14.1 µM (inconclusive)

Question: Which IC50 [4] does the source give for `COc1ccc(NC(=O)Nc2ccc([N+](=O)[O-])cc2)cn1` here?
Answer: 42.1 µM (inactive)

Question: For `CCOC(=O)C1(S(=O)(=O)c2ccccc2)CCN(Cc2ccccc2)CC1`, which AC50 (Cytochrome P450 2C9) is on record?
Answer: 11.2 µM (inconclusive)

Question: Which EC50 [3] does the source give for `Cc1ccc(C2=NCCn3c2c2ccc(C(F)(F)F)cc2[n+]3[O-])cc1` here?
Answer: > 195 µM (not active)

Question: Which results are given for `CCNc1ncc2nc(C)c(=O)n(Cc3ccc(F)cc3)c2n1`?
Answer: AC50 (Cytochrome P450 3A4): 7.94 µM (inconclusive); AC50 (Cytochrome P450 2C19): 6.31 µM (inconclusive)

Question: With `COC(=O)c1ccc2ccn(CC(=O)NC3CCCCC3)c2c1` as the compound, how does the AC50 (Cytochrome P450 3A4) read?
Answer: 4.47 µM (inconclusive)

Reference: ChEMBL document CHEMBL1201862, “PubChem BioAssay data set” (2004)
